According to patent US20230099441A1, “HETEROCYCLIC COMPOUND, APPLICATION THEREOF, AND COMPOSITION CONTAINING SAME” (GenEros Biopharma Ltd., priority 2019, published 2023):

Experiments:
[1] = system: mouse collagen-induced arthritis model; experiment: Therapeutic efficacy in a mouse collagen-induced arthritis model (clinical score); format: in vivo; conditions: mean of group, total score 0-12, oral, Methotrexate 0.25 mg/kg once a week, Tofacitinib 5 mg/kg once a day, X8 1 mg/kg once a day
Source text: Example of Effect 2: Evaluation of the Therapeutic Efficacy of X8 Compound in a Mouse Collagen-Induced Arthritis Model
(§1) Sixty male DBA/1J mice (9-10 weeks old, H-2q haplotype) were acclimatized in a standard animal room for one week and then randomly divided into 5 groups. Except for the healthy control group, the rest were inoculated with collagen antigen injection, and then received oral treatment with different compounds. The brief procedure was to mix bovine type II collagen (purchased from Chondrex, 20021) with an equal volume of Freund's complete adjuvant (purchased from Sigma, F5881), the concentration was 4 mg/ml, and it was treated with a homogenizer at a speed of 20,000 revolutions/min for 5-10 minutes. A needle was inserted between the left side of the dorsal caudal artery and the lateral vein of the mouse, and 50 microliters of modeling agent was injected subcutaneously. 21 days after the first injection, another injection was injected between the right side of the dorsal tail artery and the lateral vein of the mouse. After the first injection, oral administration was started. The drug was formulated with […] PEG300, and it was prepared for immediate use. […] The total score was between 0-12 points, and the swelling of the foot after vaccination was not calculated.

[2] = Body weight of animals in the mouse collagen-induced arthritis model; format: in vivo; conditions: oral, X8 1 mg/kg once a day; for body weight of animals, Mean/g: mean of group, Methotrexate 0.25 mg/kg once a week, Tofacitinib 5 mg/kg once a day
Source text: as §1

SMILES: CN(Cc1cnc2nc(N)nc(N)c2n1)c1ccc(C(=O)N[C@@H](CCC(=O)O)C(=O)O)cc1 [Methotrexate, methotrexate]
- clinical score of arthritis, Mean (the larger the value, the more severe the disease) ([1]; day 0): 0.00
- clinical score of arthritis, Mean (the larger the value, the more severe the disease) ([1]; day 21): 0.00
- clinical score of arthritis, Mean (the larger the value, the more severe the disease) ([1]; day 25): 0.00
- clinical score of arthritis, Mean (the larger the value, the more severe the disease) ([1]; day 28): 0.40
- clinical score of arthritis, Mean (the larger the value, the more severe the disease) ([1]; day 31): 1.32
- clinical score of arthritis, Mean (the larger the value, the more severe the disease) ([1]; day 33): 1.55
- clinical score of arthritis, Mean (the larger the value, the more severe the disease) ([1]; day 35): 2.05
- clinical score of arthritis, Mean (the larger the value, the more severe the disease) ([1]; day 38): 2.41
- clinical score of arthritis, Mean (the larger the value, the more severe the disease) ([1]; day 40): 2.60
- clinical score of arthritis, Mean (the larger the value, the more severe the disease) ([1]; day 42): 3.66
- clinical score of arthritis, Mean (the larger the value, the more severe the disease) ([1]; day 45): 4.61
- body weight of animals, Mean/g ([2]; day 0): 21.92 g
- body weight of animals, Mean/g ([2]; day 4): 22.30 g
- body weight of animals, Mean/g ([2]; day 7): 22.91 g
- body weight of animals, Mean/g ([2]; day 11): 23.33 g
- body weight of animals, Mean/g ([2]; day 14): 21.72 g
- body weight of animals, Mean/g ([2]; day 18): 23.92 g
- body weight of animals, Mean/g ([2]; day 20): 24.09 g
- body weight of animals, Mean/g ([2]; day 25): 23.64 g
- body weight of animals, Mean/g ([2]; day 28): 23.48 g
- body weight of animals, Mean/g ([2]; day 31): 23.12 g
- body weight of animals, Mean/g ([2]; day 33): 23.00 g
- body weight of animals, Mean/g ([2]; day 35): 22.08 g
- body weight of animals, Mean/g ([2]; day 38): 22.86 g
- body weight of animals, Mean/g ([2]; day 40): 22.70 g
- body weight of animals, Mean/g ([2]; day 42): 22.45 g
- body weight of animals, Mean/g ([2]; day 45): 22.30 g
- effect on body weight of animals (in words) ([2]; whole experiment, days 0-45, methotrexate 0.25 mg/kg once a week, tofacitinib 5 mg/kg once a day): two sudden drops
